Patent publication US6048854A, “2,3-diaminopropionic acid derivative” (Sumitomo Pharmaceuticals Company, Limited, priority 1993, dated 2000)
Read-outs that look alike come from different tables or passages of the source.

How the values were obtained:
[1] = test system: human fibronectin; assay: Binding assay of platelet to adhesive protein: fibronectin (receptor binding inhibition); settings: Table 4; fixed activated human platelets, 37° C., 60 minutes
Description: (§1) The blood was taken out from the elbow vein of a normal volunteer, and mixed with 1/10 volume of 3.8% sodium citrate. The blood was centrifuged at 1,000 rpm (150 g) for 10 minutes, and the supernatant is collected as a platelet rich plasma (PRP). The precipitates are centrifuged at 11,000 rpm (6000 g) for two minutes, and the supernatant is collected as a platelet poor plasma (PPP). To PRP is added prostaglandin I2 (PGl2) at a final concentration of 50 ng/ml, and the mixture was centrifuged at 11000 rpm for two minutes to give human platelet. The platelet was activated by washing with 3.8 mM HEPES-buffer (pH 7.4, Tyrode-HEPES buffer) containing 0.14 M sodium chloride, 2.7 mM potassium chloride, 3.7 mM sodium dihydrogen phosphate, 0.98 mM magnesium chloride, 1 mg/ml glucose, 50 ng/ml PGl2 and 0.35% bovine serum albumin (BSA), adding thereto 5 μM epinephrine, and 30 μM ADP (adenosine diphosphate), followed by being allowed to stand at room temperature for five minutes. To the activated platelet was added 0.05% p-formaldehyde, and the mixture was allowed to stand at room temperature for 30 minutes to give the fixed platelet, which was suspended in Tyrode-HEPES buffer to give a platelet suspension of a concentration of 2×10^8 ml^-1.
(§2) Human fibrinogen from which fibronectin was previously removed by passing through gelatin-cepharose, human fibronectin or human vitronectin was diluted with 0.1 M aqueous sodium hydrogen carbonate solution to a concentration of 5 μg/ml, and the protein solution is put into a 96-well microplate at a volume of 200 μl/well. The microplate was allowed to stand at 4° C. overnight. The plate was washed with phosphate buffered saline (PBS), and subjected to blocking with 3% BSA at 37° C. for one hour. To the plate were added a platelet suspension (final concentration, 10^8 ml^-1) and a test compound of various concentrations (total volume, 200 μl/well), and the plate was incubated at 37° C. for 60 minutes. The plate was treated with 1000-fold diluted enzyme (HRP)-labelled anti-mouse IgG polyclonal antibody at 37° C. for 60 minutes, and thereto was added HRP chromogenic substrate (0.1 M phosphate buffer containing 0.4 mg/ml O-phenylenediamine,0.01% hydrogen peroxide, 0.1 M citric acid, pH 5), and reacted at room temperature for 15 minutes. The reaction was terminated by adding thereto 4.5 M sulfuric acid at a volume of 25 μl/well, and the absorbance at 490 nm was measured.

[2] = test system: human vitronectin; assay: Binding assay of platelet to adhesive protein: vitronectin (receptor binding inhibition); settings: Table 4; fixed activated human platelets, 37° C., 60 minutes; read-out: receptor binding inhibition (IC50), Bitronectin
Description: as §1, §2

[3] = target: T1, human fibrinogen (Homo sapiens, UniProt P05106+P08514); assay: Binding assay of platelet to adhesive protein: fibrinogen (receptor binding inhibition); settings: Table 4; fixed activated human platelets, 37° C., 60 minutes
T1 construct: centrifuged at 11000 rpm for two minutes to give human platelet; from tissue
Description: as §1, §2

[4] = test system: platelet aggregation; assay: Platelet aggregation inhibitory activity (ADP-induced, human platelet rich plasma); assay type: cell-based
Description: The blood was collected from the elbow vein of a normal volunteer with mixing thereof with 1/10 volume of 3.8% sodium citrate, and the blood was centrifuged at 1000 rpm (150 g) for 10 minutes to give the supernatant as platelet rich plasma (PRP). To PRP (200 μl) was added a test compound solution (2 μl), and the mixture was incubated with stirring at 1000 rpm at 37° C. for two minutes, and thereto was added a platelet aggregator, adenosine diphosphate (ADP, 22 μl) at a final concentration of 3 μg/ml. The platelet aggregation activity was determined by nephelometric analysis using a Hematracer (manufactured by Niko Bioscience, Ltd.). The test results of platelet aggregation inhibitory activity are expressed by IC50, which is a concentration of the test compound being required to inhibit the platelet aggregation reaction by 50%.
The compounds of Examples 18 to 70 were tested in the same manner as in Example 17.
The compounds of Examples 72 to 116 were tested in the same manner as in Example 17.

[5] = test system: platelet aggregation; assay: Platelet aggregation inhibitory activity (ex vivo) after oral administration; assay type: in vivo; settings: Cavia porcellus, guinea pig, oral 0.1 mg/kg, ADP 10 μg/ml
Description: A canula for collecting blood was inserted into the left common carotid artery of a guinea pig which was anesthetized with pentobarbital (30 mg/kg, i.p.). The blood (1 ml) was taken with a syringe containing 1/10 volume of 3.8% sodium citrate (Kettin-citrate, manufactured by Kokusai Shiyaku Ltd.), and the platelet aggregation ability thereof was measured (as a value before administration). Then, a test compound was orally administered to the guinea pig at a dose of 0.1 mg/kg in a volume of 5 ml/kg, and the blood was collected periodically likewise at 0.5, 1, 2, 4 and 6 hours after the administration of the test compound, and the platelet aggregation ability thereof was measured.
The determination of the platelet aggregation ability was carried out by turbidimetry using a Hematracer (Niko Bioscience) as follows. That is, the blood was centrifuged at 4500 rpm at room temperature for 10 seconds, and the supernatant was considered as platelet rich plasma (PRP), and the precipitate was centrifuged at 11000 rpm for two minutes and its supernatant was considered as platelet poor plasma (PPP), and the photo-transmittance of the PRP and the PPP was adjusted to 0%, and 100%, respectively. A cubet containing PRP (200 μl) was inserted to a measurement well, and […] at 1000 rpm at 37° C. for two minutes, and thereto was added a platelet aggregator; ADP (adenosine diphosphate, Sigma Ltd., 20 μl, final concentration; 10 μg/ml), and the maximum aggregation rate was measured. From the maximum aggregation rate before the administration of the test compound (MAR control) and the maximum aggregation rate after the administration of the test compound (MAR sample), the platelet aggregation inhibitory rate of each test compound was estimated according to the following equation.
Inhibitory rate (%)=(1-(MAR sample/MAR control))×100
The periodical change in the platelet aggregation inhibitory rate of each test compound at a dose of 0.1 mg/kg of oral administration is shown in Table 5.

[6] = 0.5 hr, read-out: platelet aggregation inhibitory rate (%), 0.5 hr
[7] = 1 hr, read-out: platelet aggregation inhibitory rate (%), 1 hr
[8] = 2 hrs, read-out: platelet aggregation inhibitory rate (%), 2 hrs
[9] = 4 hrs, read-out: platelet aggregation inhibitory rate (%), 4 hrs
[10] = 6 hrs, read-out: platelet aggregation inhibitory rate (%), 6 hrs
[11] = Homo sapiens, Table 2, same manner as Example 17
[12] = Homo sapiens, Table 3, same manner as Example 17

T1 sequence (P08514 32-887 limits assumed): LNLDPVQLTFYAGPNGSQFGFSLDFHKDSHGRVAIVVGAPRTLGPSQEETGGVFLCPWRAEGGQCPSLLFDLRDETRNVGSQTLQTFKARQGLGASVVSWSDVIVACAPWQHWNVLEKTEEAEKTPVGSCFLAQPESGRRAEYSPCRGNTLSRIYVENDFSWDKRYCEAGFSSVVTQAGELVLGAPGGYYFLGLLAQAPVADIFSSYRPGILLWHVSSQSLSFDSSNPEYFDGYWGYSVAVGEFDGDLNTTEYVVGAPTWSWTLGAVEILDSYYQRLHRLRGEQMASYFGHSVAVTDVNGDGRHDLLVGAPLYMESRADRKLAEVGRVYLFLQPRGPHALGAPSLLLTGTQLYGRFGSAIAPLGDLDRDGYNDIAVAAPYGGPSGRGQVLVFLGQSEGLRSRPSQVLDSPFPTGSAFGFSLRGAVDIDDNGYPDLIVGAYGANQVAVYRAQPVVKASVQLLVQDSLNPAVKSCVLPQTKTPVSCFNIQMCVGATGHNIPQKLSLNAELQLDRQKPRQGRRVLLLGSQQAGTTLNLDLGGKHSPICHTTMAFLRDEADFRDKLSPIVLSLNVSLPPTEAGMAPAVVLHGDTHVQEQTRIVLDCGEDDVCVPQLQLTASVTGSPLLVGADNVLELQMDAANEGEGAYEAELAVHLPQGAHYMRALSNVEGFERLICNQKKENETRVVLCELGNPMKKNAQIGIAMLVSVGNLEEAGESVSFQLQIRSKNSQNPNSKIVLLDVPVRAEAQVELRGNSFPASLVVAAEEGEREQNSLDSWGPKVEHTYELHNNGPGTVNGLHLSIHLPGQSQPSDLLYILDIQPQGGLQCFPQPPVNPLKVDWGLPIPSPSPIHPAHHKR
T1 sequence (P08514 891-1039 limits assumed): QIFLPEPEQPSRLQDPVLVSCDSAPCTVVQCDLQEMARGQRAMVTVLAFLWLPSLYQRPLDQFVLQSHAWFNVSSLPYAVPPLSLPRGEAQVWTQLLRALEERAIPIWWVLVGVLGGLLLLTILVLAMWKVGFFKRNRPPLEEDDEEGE
T1 sequence (P05106 27-788): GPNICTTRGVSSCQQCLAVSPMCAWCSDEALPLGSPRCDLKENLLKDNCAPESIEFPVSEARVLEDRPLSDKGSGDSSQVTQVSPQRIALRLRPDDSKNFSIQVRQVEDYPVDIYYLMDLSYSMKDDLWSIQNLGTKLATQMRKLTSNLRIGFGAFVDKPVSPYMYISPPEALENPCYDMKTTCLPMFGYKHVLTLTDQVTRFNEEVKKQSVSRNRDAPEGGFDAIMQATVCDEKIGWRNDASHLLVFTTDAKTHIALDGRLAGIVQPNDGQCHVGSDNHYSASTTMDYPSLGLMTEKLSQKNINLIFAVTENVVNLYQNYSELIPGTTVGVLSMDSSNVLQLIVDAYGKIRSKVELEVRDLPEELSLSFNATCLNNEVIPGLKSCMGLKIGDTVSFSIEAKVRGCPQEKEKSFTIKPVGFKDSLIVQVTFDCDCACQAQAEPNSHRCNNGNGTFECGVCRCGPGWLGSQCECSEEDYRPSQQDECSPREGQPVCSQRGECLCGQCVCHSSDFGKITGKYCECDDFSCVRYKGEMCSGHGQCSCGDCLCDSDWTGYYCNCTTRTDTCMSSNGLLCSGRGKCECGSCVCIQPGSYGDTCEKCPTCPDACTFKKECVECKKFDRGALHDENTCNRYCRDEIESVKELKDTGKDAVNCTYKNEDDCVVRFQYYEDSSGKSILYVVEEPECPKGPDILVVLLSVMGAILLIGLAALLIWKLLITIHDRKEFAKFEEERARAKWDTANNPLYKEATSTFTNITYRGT

Row | SMILES | IC50 [1] | IC50 [2] | IC50 [3] | IC50 ([4]; Table 1, human PRP, ADP 3 μg/ml, 37° C.) | inhibition in vivo at 0.1 mg/kg [5, 6] | inhibition in vivo at 0.1 mg/kg [5, 7] | inhibition in vivo at 0.1 mg/kg [5, 8] | inhibition in vivo at 0.1 mg/kg [5, 9] | inhibition in vivo at 0.1 mg/kg [5, 10] | IC50 [4, 11] | IC50 [4, 12]
1 | N=C(N)c1ccc(C(=O)NCCC(=O)NC[C@H](NS(=O)(=O)c2ccccc2)C(=O)O)cc1 [Example 1, (2S)-3-(3-(4-amidinobenzoylamino)propanoylamino)-2-benzenesulfonylaminopropanoic Acid] | 200 nM | 1000 nM | 4.6 nM | 16 nM | 100% | 100% | 100% | 100% | 100% | – | –
2 | COc1ccc(S(=O)(=O)N[C@@H](CNC(=O)CCCOc2ccc(C(=N)N)cc2)C(=O)O)cc1 [Example 57, (2S)-3-(4-(4-amidinophenoxy)butanoylamino)-2-(4-methoxy)benzenesulfonylaminopropanoic Acid] | 1200 nM | 7500 nM | 7.1 nM | – | – | – | – | – | – | 18 nM | –
3 | N=C(N)c1ccc(OCCCC(=O)NC[C@H](NS(=O)(=O)c2ccccc2)C(=O)O)cc1 [Example 58, (2S)-3-(4-(4-amidinophenoxy)butanoylamino)-2-benzenesulfonylaminopropanoicAcid] | 610 nM | 8000 nM | 24 nM | – | – | – | – | – | – | 96 nM | –
4 | N=C(N)c1ccc(OCCCC(=O)NC[C@H](NS(=O)(=O)c2ccccc2[N+](=O)[O-])C(=O)O)cc1 [Example 59] | 610 nM | 3300 nM | 12 nM | – | – | – | – | – | – | 34 nM | –
5 | Cc1cc(C)c(S(=O)(=O)N[C@@H](CNC(=O)CCCOc2ccc(C(=N)N)cc2)C(=O)O)c(C)c1 [Example 60, (2S)-3-(4-(4-amidinophenoxy)butanoylamino)-2-(2,4,6-trimethyl)benzenesulfonylaminopropanic Acid] | 94 nM | 1100 nM | 1.5 nM | – | – | – | – | – | – | 31 nM | –
6 | N=C(N)c1ccc(CCCCC(=O)NC[C@H](NS(=O)(=O)c2ccccc2)C(=O)O)cc1 [Example 67] | – | – | – | – | 88% | 71% | 69% | 31% | 10% | 32 nM | –
7 | COc1ccc(S(=O)(=O)N[C@@H](CNC(=O)Cc2ccc(-c3ccc(C(=N)N)cc3)cc2)C(=O)O)cc1 [Example 68, (2S)-3-(2-(4'-amidino-4-biphenylyl)ethanoylamino)-2-(4-methoxy)benzenesulfonylaminopropanoic Acid] | 99 nM | 2700 nM | 12 nM | – | – | – | – | – | – | 43 nM | –
8 | N=C(N)c1ccc(C(=O)N2CCCC(C(=O)NC[C@H](NS(=O)(=O)c3ccccc3)C(=O)O)C2)cc1 (stereo partly drawn) [Example 95, (2S)-3-((1-(4-amidinobenzoyl)-3-piperidyl)carbonylamino)-2-benzenesulfonylaminopropanoic Acid] | 33 nM | 630 nM | 8.4 nM | – | 49% | 49% | 31% | 12% | 18% | – | –
9 | CNC(=N)c1ccc(C(=O)NCCC(=O)NC[C@H](NS(=O)(=O)c2ccccc2)C(=O)O)cc1 [Example 98, (2S)-2-benzenesulfonylamino-3-(3-(4-(N-methylamidino)benzoylamino)propanoylamino)propanoic Acid] | – | – | – | – | 94% | 100% | 100% | 100% | 100% | – | 57 nM
10 | CCNC(=N)c1ccc(C(=O)NCCC(=O)NC[C@H](NS(=O)(=O)c2ccccc2)C(=O)O)cc1 [Example 99, (2S)-2-benzenesulfonylamino-3-(3-(4-(N-ethylamidino)benzoylamino)propanoylamino)propanoic Acid] | – | – | – | – | 100% | 100% | 100% | 100% | 100% | – | 17 nM
11 | CN(C)C(=N)c1ccc(C(=O)NCCC(=O)NC[C@H](NS(=O)(=O)c2ccccc2)C(=O)O)cc1 [Example 100, (2S)-2-benzenesulfonylamino-3-(3-(4-(N,N-dimethylamidino)benzoylamino)propanoylamino)propanoic Acid] | – | – | – | – | 100% | 100% | 100% | 100% | 100% | – | 28 nM
12 | N=C1NCCc2cc(OCCCC(=O)NC[C@H](NS(=O)(=O)c3ccccc3)C(=O)O)ccc21 [Example 111, (2S)-2-benzenesulfonylamino-3-(4-(6-(1-imino-1,2,3,4-tetrahydroisoquinolyl)oxy)butanoylamino)propanoic Acid] | – | – | – | – | – | – | – | – | – | – | 41 nM
13 | CC(C)(C)C(=O)OCOC(=O)[C@H](CNC(=O)CCCOc1ccc(C(=N)N)cc1)NS(=O)(=O)c1ccccc1 [Example 113, (2S)-3-(4-(4-amidinophenoxy)butanoylamino)-2-benzenesulfonylaminopropanoicAcid Pivaloyloxymethyl Ester] | – | – | – | – | – | – | – | – | – | – | 48 nM
14 | NC(=O)c1ccc(C(=O)NCCC(=O)NC[C@H](NS(=O)(=O)c2ccccc2N)C(=O)O)cc1 [Example 114, (2S)-2-(2-amino)benzenesulfonylamino-3-(3-(4-carbamoylbenzoylamino)propanoylamino)propanoic Acid] | – | – | – | – | – | – | – | – | – | – | 35 nM
15 | CCc1ccc(S(=O)(=O)N[C@@H](CNC(=O)CCNC(=O)c2ccc(C(=N)N)cc2)C(=O)OCOC(=O)C(C)(C)C)cc1 [Example 116, (2S)-3-(3-(4-amidinobenzoylamino)propanoylamino)-2-(4-ethyl)benzenesulfonylaminopropanoic Acid Pivaloyloxymethyl Ester] | – | – | – | – | – | – | – | – | – | – | 103 nM
